{"source": "patent US8779006B2", "about": "“Compositions and methods for treatment and prevention of osteoarthritis” (Nucitec S.A. de C.V., priority 2007, dated 2014)", "key": {"[1]": {"test_system": "patients with OA of the knee", "test": "Example 2 randomized double-blind active-controlled study: WOMAC index", "format": "in vivo, human", "description": "(§1) This was a 16-week, randomized, double-blind, active-controlled, parallel-group study. The study received Ethics Committee approval, was performed in accordance with the ICH Harmonized Guidelines for Good clinical Practice (GPC) and the Declaration of Helsinki. All patients provided written, informed consent before the start of the study.\n(§2) 117 patients with OA of the knee (according to the American College of Rheumatology criteria) were included in the study. Patients were enrolled by public advertising and were studied at the San Jose Hospital in Queretaro, México. Entry criteria included: willingness to participate in the study, male and female patients aged at least 40 years of age with symptomatic evidence of OA in the knee for at least 1 year, radiographic evidence of Kellgren and Lawrence grade II to IV OA of the knee, and no intra-articular injection of corticosteroids within the last 3 months. Patients were excluded if they had: any history of adverse reaction to the study drugs, current pregnancy status, uncontrolled hypertension, active infection, undergone surgery/arthroscopy within three months, diagnosis of radiographic OA of Kellgren and Lawrence grade I.\n(§3) Participants were assessed in-person during 6 visits conducted at monthly intervals. After giving written informed consent (visit #1), patients were screened and selected according to the predetermined criteria. Visit #2 was the baseline assessment. During this visit selected patients were assigned a unique patient identification number and randomized to receive 1 intra-articular monthly injection (10 mL) of Kondrium™, Kondrium™-F or methylprednisolone (80 mg) 1 month apart during the next 3 months (visits 3, 4 and 5). Visit #3, #4 and #5 served as a midpoint assessment and visit #6 was the final assessment corresponding to the end of the intervention period of the study. Kondrium™ is an aqueous formulation that contains 6.75% (w/v) sodium bicarbonate and 0.75% (w/v) calcium gluconate. Kondrium™-F is an aqueous formulation that contains 6.75% (w/v) sodium bicarbonate and 1.5% (w/v) calcium gluconate.\n(§4) The primary efficacy variable was the change from the baseline to final assessment in the Western Ontario and McMastern University OA index (WOMAC subscale score for pain), and Lequesne's functional index.\n(§5) Data analysis was performed using SPSS for Windows version 10.0. Baseline demographic variables and compliance were analyzed by means of the χ^2 test. A univariate analysis of variance (ANOVA) was used to determine whether the three treatment groups differed in mean values of change from a baseline in WOMAC and Lequesne's functional index. Treatment effect is shown as the main effect controlled by the baseline values. Pairwise comparisons between treatments were done with the LSD test. All statistical tests were performed at the 0.05 level of significance."}, "[2]": {"test_system": "patients with OA of the knee", "test": "Example 2 randomized double-blind active-controlled study: Lequesne's functional index", "format": "in vivo, human", "description": "as §1, §2, §3, §4, §5"}, "[3]": {"details": "after 4 months of treatment, monthly intra-articular injection"}}, "data": [{"smiles": "C[C@H]1C[C@@H]2[C@H]([C@@H](O)C[C@@]3(C)[C@H]2CC[C@]3(O)C(=O)CO)[C@@]2(C)C=CC(=O)C=C12", "note": "[Methylprednisolone, methylprednisolone]", "values": [{"measurement": "WOMAC Pain, change, mean", "setting": "[1]; [3]", "value": "−2.76"}, {"measurement": "WOMAC Pain, final, mean", "setting": "[1]; [3]", "value": 2.57}, {"measurement": "WOMAC Physical functioning, change, mean", "setting": "[1]; [3]", "value": "−7.34"}, {"measurement": "WOMAC Physical functioning, final, mean", "setting": "[1]; [3]", "value": 8.19}, {"measurement": "WOMAC Stiffness, change, mean", "setting": "[1]; [3]", "value": "−2.42"}, {"measurement": "WOMAC Stiffness, final, mean", "setting": "[1]; [3]", "value": 2.77}, {"measurement": "WOMAC Pain, baseline, mean", "setting": "[1]; before treatment", "value": 4.72}, {"measurement": "WOMAC Physical functioning, baseline, mean", "setting": "[1]; before treatment", "value": 14.47}, {"measurement": "WOMAC Stiffness, baseline, mean", "setting": "[1]; before treatment", "value": 4.79}, {"measurement": "Lequesne functional index Maximum Walking Distance, change, mean", "setting": "[2]; [3]", "value": "−0.75"}, {"measurement": "Lequesne functional index Maximum Walking Distance, final, mean", "setting": "[2]; [3]", "value": 2.90}, {"measurement": "Lequesne functional index Normal activities, change, mean", "setting": "[2]; [3]", "value": "−2.80"}, {"measurement": "Lequesne functional index Normal activities, final, mean", "setting": "[2]; [3]", "value": 4.62}, {"measurement": "Lequesne functional index Pain, change, mean", "setting": "[2]; [3]", "value": "−1.96"}, {"measurement": "Lequesne functional index Pain, final, mean", "setting": "[2]; [3]", "value": 2.86}, {"measurement": "Lequesne functional index Maximum Walking Distance, baseline, mean", "setting": "[2]; before treatment", "value": 3.24}, {"measurement": "Lequesne functional index Normal activities, baseline, mean", "setting": "[2]; before treatment", "value": 6.93}, {"measurement": "Lequesne functional index Pain, baseline, mean", "setting": "[2]; before treatment", "value": 4.34}, {"measurement": "mean change in the Lequesne's functional index", "setting": "[2]; end of study vs baseline", "value": "−5.2"}]}]}
